Laboratory results published in patent US20050271721A1, “Carvedilol-hydrophilic solutions” (priority 2000, published 2005).

Columns and labels:
[1] = solubility of carvedilol in aqueous media; type: physicochemical; details: about pH 1-2
[2] = resorption after peroral administration of rapid release carvedilol formulations; type: in vivo; details: e.g. the commercial formulation
Excerpt: In the case of the peroral administration of rapid release carvedilol formulations, e.g. the commercial formulation, resorption quotas of up to 80% are achieved, with a considerable part of the resorbed carvedilol being very rapidly metabolized.

[3] = investigations into the gastrointestinal resorption of carvedilol; type: in vivo; details: passage through the gastrointestinal tract
[4] = dissolution of carvedilol in melted polyethylene glycol 6,000; type: physicochemical; details: polyethylene glycol 6,000 melted at about 70° C.
Experimental: Thus, carvedilol can be dissolved in polyethylene glycol 6,000 which is melted at about 70° C. In this manner there are obtained highly concentrated solutions of carvedilol (up to 500 mg/ml), with the carvedilol being present distributed as a molecular dispersion in the solution. Moreover, further additives, for example cellulose derivatives such as hydroxypropylmethylcelluloses or hydroxypropylcelluloses, can be admixed in order to control the release rate of the active substance. Further, the compositions in accordance with the invention can contain highly dispersed silicon dioxide as an anti-caking agent.

solubility in the strongly acidic region [1]: very low solubility | resorption quota [2]: up to 80% | concentration of the carvedilol solution (molecular dispersion) [4]: up to 500 mg/ml
Compound: COc1ccccc1OCCNCC(O)COc1cccc2[nH]c3ccccc3c12 (stereo not shown) [carvedilol, 1-(4-carbazolyloxy)-3-[2-(2-methoxyphenoxy)ethyl-amino]-2-propanol]
resorption in the ileum and colon relative to the stomach [3]: only a fraction of the resorption in the stomach
